The text below walks through data of patent US20220348564A1, “PHENYL-[1,3]DIOXOLO[4,5-C]PYRIDINYL-PHENYL-, PHENYL-[1,3]DIOXOLO[4,5-C]PYRIDINYL-HETEROARYL-, OR PHENYL-(1,3)DIOXO[4,5-C]PYRIDINYL-PIPERIDINYL-METHYL-OXETANYLMETHYL-1H-BENZO[D]IMIDAZOLE-CARBOXYLIC ACID DERIVATIVES AND METHODS OF USING SAME” (Eccogene (Shanghai) Co., Ltd., priority 2021, published 2022).

In general, EC50 refers to the concentration at which the effect is half-maximal.

Data set [1] can be described thus: Pharmacokinetics in fasted SD rats (PO and IV). Conditions: rat, plasma; for clearance: read-out: IV parameters CL; for bioavailability: read-out: PO parameters F (%). The data set is classed as in vivo. The protocol:
Compounds of the present application were formulated in 0.50% MC, and administered via oral gavage (PO) at the dosages of 5 or 10 mg per kilogram body weight, or formulated in 5% DMSO:15% Solutol 80% (SBECD), and administered via intravenous injection (IV) at the dosages of 1 mg per kilogram body weight, in fasted SD rats. Plasma samples were collected at 0.25, 0.5, 1, 2, 4, 6, 8, and 24 hours post dosing (PO); and were collected at 0.083, 0.25, 0.5, 1, 2, 4, 6, 8, and 24 hours post dosing (IV). Compound concentration was determined by LC-MS and pharmacokinetics parameters were calculated by WinNonlin 8.2 using Non-Compartmental Analysis model.

For a further data set, the target named is T1, human GLP-1 (Homo sapiens, UniProt P43220).
T1 construct: expressed in transfected cells
The experiment in a line: h-GLP-1 activity assay (Cisbio cAMP Gs dynamic kit, HTRF). It counts as cell-based. Particulars: HEK293 cells with stable expression of human GLP-1, relative EC50, 10 nM human GLP-1 = 100% response. On the procedure: Human GLP-1 agonizing activity was detected in HEK293 cells with stable expression of human GLP-1 by Cisbio cAMP Gs dynamic kit (Catalog #62AM4PEC) according to manufacturer's protocol. Briefly, cells were collected and resuspended in assay buffer containing 0.1% BSA and 0.5 mM of IBMX at concentration to 2.5×10^5 cells/mL. Two μL 5× compound solution and 8 μL cell suspension were added to each well of low-volume 384 white assay plate. After 30 min incubation at 37° C., 5 μL cAMP-d2 working solution and 5 μL anti-cAMP antibody-cryptate were added to each well, and incubate at room temperature for 1 hr. Series dilution of cAMP was used as standard. Human GLP-1 (7-37) was used as positive control and 10 nM human GLP-1 was set as 100% response. HTRF signals were read at 665 and 615 nm with EnVision plate reader and calculated cAMP concentration by intrapolation to the standard curve. The EC50 value of the tested compounds was calculated by fitting the dose response curve using a 4-parameter non-linear regression routine and relative EC50 was presented in Table S.
(In general: TR-FRET usually uses a lanthanide donor and a delayed reading to cut background.)

A short description of data set [2]: Liver microsome stability, rat. It counts as in vitro ADME. Particulars: rat liver microsomes, NADPH, 37° C. On the procedure:
(§1) Compounds of the present application was incubated with human or rat liver microsomes in the presence of NADPH at 37° C. The concentration of compound at pre-incubation and after 30 min incubation was quantified by LC-MS. The percentage of remaining compound was then calculated and indicative of microsome stability of each compound.
(In general: Liver microsomes are vesicles of endoplasmic reticulum, rich in cytochrome P450 enzymes.)

A short description of data set [3]: Liver microsome stability, human. The data set is classed as in vitro ADME. Particulars: human liver microsomes, NADPH, 37° C. The protocol:
as §1

Setting [4] is: IV 1 mg/kg, read-out: IV parameters AUC0-inf.
Setting [5] is: PO 5 mg/kg, 0.50% MC, read-out: PO parameters AUC0-inf.

Molecules are shown by their SMILES. Where two headings read alike, the source gives them in different places.

T1 sequence (P43220 24-463): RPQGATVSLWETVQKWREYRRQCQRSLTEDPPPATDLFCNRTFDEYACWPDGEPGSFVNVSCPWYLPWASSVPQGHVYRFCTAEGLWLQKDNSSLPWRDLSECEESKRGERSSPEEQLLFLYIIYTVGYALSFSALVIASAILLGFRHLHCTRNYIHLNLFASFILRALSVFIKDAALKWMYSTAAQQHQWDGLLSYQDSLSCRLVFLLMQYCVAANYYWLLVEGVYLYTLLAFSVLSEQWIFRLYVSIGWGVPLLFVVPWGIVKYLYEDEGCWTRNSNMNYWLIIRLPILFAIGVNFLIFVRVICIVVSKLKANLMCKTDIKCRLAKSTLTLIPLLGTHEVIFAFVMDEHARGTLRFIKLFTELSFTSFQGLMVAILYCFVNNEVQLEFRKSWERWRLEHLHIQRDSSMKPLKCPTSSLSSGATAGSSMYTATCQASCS

As to `C[C@]1(c2ccc(Cl)cc2F)Oc2cccc(-c3ccc(Cc4nc5ccc(C(=O)O)cc5n4C[C@@H]4CCO4)cc3)c2O1` (single isomer, unassigned) [Compound 19], the results for the AUC(0-inf) in data set [1] (setting [4]) and in data set [1] (setting [5]) were 3380 ng·h/mL and 4410 ng·h/mL, respectively. Besides, the clearance in data set [1] (IV 1 mg/kg) worked out at 5.5 mL/min/kg. Further, in data set [1] (PO 5 mg/kg), the bioavailability was 26.1%. This compound also showed an EC50 at human GLP-1 of less than 20 nM.

Turning to `C[C@]1(c2ccc(Cl)cc2F)Oc2cccc(C3=CC[C@@H](Cc4nc5c(F)cc(C(=O)O)cc5n4C[C@@H]4CCO4)OC3)c2O1` (single isomer, unassigned) [Compound 110], the “Rat (% remaining @ 30 min)” value in data set [2] is given as more than 75%. Besides, the “Human (% remaining @ 30 min)” value in data set [3] is on record as more than 75%. At human GLP-1, this compound showed an EC50 of less than 20 nM.

Regarding `C[C@@]1(c2ccc(Cl)cc2F)Oc2cccc(C3=CC[C@@H](Cc4nc5ccc(C(=O)O)cc5n4C[C@@H]4CCO4)OC3)c2O1` (single isomer, unassigned) [Compound 100], in data set [2], the “Rat (% remaining @ 30 min)” value is more than 75%. Besides, the results for the AUC(0-inf) in data set [1] (setting [4]) and in data set [1] (setting [5]) were 1760 ng·h/mL and 3190 ng·h/mL, respectively. Further, in data set [1] (IV 1 mg/kg), the clearance stood at 9.7 mL/min/kg. For the same compound, the bioavailability in data set [1] (PO 5 mg/kg) is 36.3%. For the same compound, in data set [3], the “Human (% remaining @ 30 min)” value was more than 75%. Besides, on human GLP-1, the EC50 is less than 20 nM.

For the compound `C[C@@]1(c2ccc(Cl)cn2)Oc2cccc(C3=CC[C@H](Cc4nc5ccc(C(=O)O)cc5n4C[C@@H]4CCO4)OC3)c2O1` (single isomer, unassigned) [Compound 78], the “Rat (% remaining @ 30 min)” value in data set [2] is recorded as more than 75%. In data set [3], the “Human (% remaining @ 30 min)” value was more than 75%. Also, the EC50 on human GLP-1 is less than 20 nM.

In the case of `C[C@]1(c2ccc(Cl)cc2F)Oc2cccc(C3=CC[C@@H](Cc4nc5ccc(C(=O)O)nc5n4C[C@@H]4CCO4)OC3)c2O1` (single isomer, unassigned) [Compound 108], the “Rat (% remaining @ 30 min)” value in data set [2] was more than 75%. Besides, in data set [3], the “Human (% remaining @ 30 min)” value is recorded as more than 75%. On human GLP-1, the EC50 is less than 20 nM.

Consider `C[C@]1(c2ccc(Cl)cn2)Oc2cccc(C3=CC[C@H](Cc4nc5c(F)cc(C(=O)O)cc5n4C[C@@H]4CCO4)OC3)c2O1` (single isomer, unassigned) [Compound 118], for which the “Rat (% remaining @ 30 min)” value in data set [2] was more than 75%. For the same compound, the “Human (% remaining @ 30 min)” value in data set [3] is recorded as more than 75%. Besides, at human GLP-1, the EC50 was less than 20 nM.

Consider `N#Cc1ccc(COc2cccc([C@@H]3CC[C@H](Cc4nc5ccc(C(=O)O)cc5n4C[C@@H]4CCO4)OC3)n2)c(F)c1` (single isomer, unassigned) [Compound 32], for which the concentration giving a half-maximal response (EC50) at human GLP-1 was less than 20 nM.

For `C[C@]1(c2ccc(Cl)cn2)Oc2cccc(C3=CC[C@H](Cc4nc5ccc(C(=O)O)cc5n4Cc4cscn4)OC3)c2O1` (single isomer, unassigned) [Compound 114], the EC50 at human GLP-1 was in the range of 20 to 100 nM.

For `C[C@]1(c2ccc(Cl)cn2)Oc2cccc(C3=CC[C@@H](Cc4nc5c(F)cc(C(=O)O)cc5n4C[C@@H]4CCO4)OC3)c2O1` (single isomer, unassigned) [Compound 119], the EC50 on human GLP-1 was in the range of 20 to 100 nM.

At human GLP-1, `C[C@]1(c2ccc(Cl)cc2F)Oc2cccc(-c3ccc(Cc4nc5ccc(C(=O)O)cc5n4C[C@@H]4CCO4)nc3)c2O1` (single isomer, unassigned) [Compound 18] yielded a concentration giving a half-maximal response (EC50) of less than 20 nM.

Take `O=C(O)c1ccc2nc(C[C@H]3CC[C@H](c4cccc(OCc5ccc(Cl)cc5F)n4)CO3)n(Cc3cncs3)c2c1` (single isomer, unassigned) [Compound 28]: the AUC(0-inf) was 588 ng·h/mL in data set [1] (setting [4]) and 526 ng·h/mL in data set [1] (setting [5]). Besides, the clearance in data set [1] (IV 1 mg/kg) is 28.8 mL/min/kg. Besides, the bioavailability in data set [1] (PO 5 mg/kg) turned out to be 21.7%. The EC50 on human GLP-1 is less than 20 nM.

As to `C[C@@]1(c2ccc(Cl)cc2F)Oc2cccc(C3CCN(Cc4nc5ccc(C(=O)NS(=O)(=O)C6CC6)cc5n4C[C@@H]4CCO4)CC3)c2O1` (single isomer, unassigned) [Compound 24], the EC50 on human GLP-1 is less than 20 nM.

In the case of `N#Cc1ccc(COc2cccc([C@H]3CC[C@@H](Cc4nc5ccc(C(=O)O)cc5n4C[C@@H]4CCO4)OC3)n2)c(F)c1` (single isomer, unassigned) [Compound 33], the EC50 on human GLP-1 is less than 20 nM.

`CC1(c2ccc(Cl)cc2F)Oc2cccc(-c3nc(Cc4nc5ccc(C(=O)O)cc5n4C[C@@H]4CCO4)cs3)c2O1` (mixture of isomers) [Compound 25, 2-((2-(2-(4-chloro-2-fluorophenyl)-2-methylbenzo[d][1,3]dioxol-4-yl)thiazol-4-yl)methyl)-1-(((S)-oxetan-2-yl)methyl)-1H-benzo[d]imidazole-6-carboxylic acid] returned a concentration for a half-maximal effect (EC50) at human GLP-1 of more than 100 nM.

`C[C@@]1(c2ccc(Cl)cc2F)Oc2cccc(C3=CC[C@H](Cc4nc5ccc(C(=O)O)cc5n4C[C@@H]4CCO4)OC3)c2O1` (single isomer, unassigned) [Compound 106]: the concentration for a half-maximal effect (EC50) on human GLP-1 was more than 100 nM.
